The record followed here is patent US9642859B2, “Use of capsazepine and analogs thereof to treat cancer” (THE BOARD OF REGENTS OF THE UNIVERSITY OF TEXAS SYSTEM, priority 2012, dated 2017).

The test system of data set [1] is breast cancer cell line MDA231. The experiment in a line: Additional cell proliferation assay, MDA231. As to conditions: MDA231, 24 hour treatment. Format: cell-based, human. An excerpt:
Observed reductions in cell proliferation in these additional in vitro studies are as follows: SCC4, 40%; HSC3, 50%; SCC25, 80%; Cal27, 15%; MDA231, 56%; and LnCap, 37%.

Data set [2] relates to PC3 prostate cancer cells. The experiment in a line: Cell viability assay of PC3 cells with and without NAC. Type of data set: cell-based, human. As to conditions: PC3 prostate cancer cells, 24 h.
Data set [3] has as its system OSCC cell lines (HSC3, SCC4, and SCC25). Kind of data set: Calcium imaging of OSCC cell lines. As to conditions: capsazepine 30 μM (cytotoxic dose). Type of data set: cell-based, human. How it is done:
FIGS. 1J-1 to 1J-2. FIGS. 1J-1(a) to (c): […] FIGS. 1J-2(a) to (c): […] Arrow indicates time point when treatment was added. […] This was due to the toxic effects of this high capsaicin concentration which permeablized the cell membrane allowing calcium to flow freely […] the cell. This was not reversed by capsazepine. […] These finding confirm that activation of TRPV1 is not the mechanism by which cell death is induced using capsazepine.

The test system is the same in data set [4]. Kind of data set: Western blot analysis of cleaved PARP. As to conditions: increasing doses of CPZ, 24 h. Type of data set: cell-based, human. How it is done: FIG. 1F. […] The Control (Ctrl) is […].
In particular, Table 1 provides additional cell cycle distribution data of OSCC cells (%) treated with 0 μM, 30 μM, 60 μM, or 90 μM CPZ for 24 hours. Data for OSCC cell lines HSC3, SCC4, and SCC25 are also provided in diagrams of FIGS. 1G-1, 1G-2, and 1G-3, respectively.

The test system is the same in data set [5]. The experiment in a line: Apoptosis studies, microscopic analysis of OSCC cells. Format: cell-based, human. Conditions: CPZ 30, 60 or 90 μM, 24 hrs. How it is done: FIGS. 1E-1, 1E-2, and 1E-3. […] In FIG. 1E-1, magnifications of (from left to right) vehicle control HSC3 cells (a) and HSC3 cells treated with 30 μM CPZ (b), 60 μM CP(c), or 90 μM CPZ(d). In FIG. 1E-2, magnifications of (from left to right) vehicle control SCC4 cells (a) and SCC4 cells treated with 30 μM CPZ (b), 60 μM CPZ (c), 90 μM CPZ (d), while, in FIG. 1E-3, magnifications of (from left to right) vehicle control SCC25 cells (a) and SCC25 cells treated with 30 μM CPZ (b), 60 μM CPZ (c), or 90 μM CPZ (d).
To determine if reduced cell viability was due to apoptosis, flow-sort analysis and microscopic analysis of cells in three OSCC cell lines (HSC3, SCC4, and SCC25) following treatment were performed. […] (Compare FIGS. 1E-1(b) to (d), FIGS. 1E-2(b)-(d), and FIGS. 1E-3(b) to (d) with FIG. 1E-1(a), FIG. 1E-2(a), and FIG. 1E-3(a), respectively.)

The test system of data set [6] is HSC3 xenografts. The experiment in a line: OSCC mouse xenograft model, HSC3. Type of data set: in vivo, athymic nude (nu/nu) mice. Conditions: 40 μg CPZ intra-tumoral every other day. An excerpt:
Animals. Six week-old female athymic nude (nu/nu) mice were purchased from HARLAN Laboratories (Indianapolis, Ind.) and used in a laminar air-flow cabinet under pathogen-free conditions. They were provided with a 12-h light/dark schedule at controlled temperature and humidity with food and water ad libitum. Mice were allowed to acclimate for at least one week prior to the start of the experiments. All procedures were approved by the UTHSCSA (University of Texas Health Science Center—San Antonio) Institutional Animal Care and Use Committee.
OSCC Mouse Xenograft Model. Mice were injected subcutaneously in the right flank with 2×10^6 HSC3, SCC4, or SCC25 cells in 0.1 ml of sterile phosphate buffered saline (each of these cell lines is published in scientific literature). Four weeks post-inoculation, tumors had grown to an average volume of 110 mm^3. Mice were then divided into two experimental groups of five animals each, which received the following treatments as intra-tumoral injections: group A, vehicle control (7% DMSO in sterile saline); group B, CPZ treatment (40 μg). The injections were repeated every other day and for a total of at least 14 days.
Treatments. […] Mice were monitored daily for tumor growth, cachexia, and weight loss. Tumor volumes and body weight were recorded every other day. Tumor volumes were calculated by the formula: (4π/3)×(w/2)2×(l/2), where w=width and l=length. […]

Data set [7] deals with OSCC cell lines (HSC3, SCC4, and SCC25).
Protocol: Cell viability assays reported as % of vehicle control (n=3). […] VEH=delivery vehicle control without CAP or CPZ. *p<0.05, ***p<0.001.
FIG. 1H-1: Cell viability assays of OSCC cell lines treated with 30 μM CPZ alone or in combination with 10 mM N-Acetyl-L-Cysteine (NAC) for 24 h (n=4); ***p<0.001.
Human OSCC Cell Lines. The human OSCC cell lines MDA231, PS3, SCC4 and SCC25 were obtained from ATCC (American Type Culture Collection, Rockville, Md.). The HSC3 cell line was obtained from the Japanese Cell Resource Bank (Osaka, Japan). […] Cells were maintained in DMEM (GIBCO, Carlsbad, Calif.) supplemented with 10% FBS at 37° C. in 5% CO2. Both cell lines were derived from primary OSCC tumors from the tongues of male patients in their fifth generation of life. Data regarding pertinent medical history, treatment, outcome of care and recurrence were not available.
Statistical Analysis. Statistical analyses were performed using GraphPad Prism4 (San Diego, Calif.). Experiments were performed in triplicate and results are represented as means+SD except when indicated. […] Cytotoxicity assays of cell viability were analyzed by one-way ANOVA and Bonferroni's post-hoc test (n=3).

Regarding `Oc1cc2c(cc1O)CN(C(=S)NCCc1ccc(Cl)cc1)CCC2` [CPZ, 2-[2-(4-chlorphenyl)ethylamino-thiocarbonyl]-7,8-dihydroxy-2,3,4,5-tetrahydro-1H-2-benzazepine], the “reduction in cell proliferation” value in data set [1] is 56%. Besides, the cytotoxicity entry in data set [2] and in data set [7] was “significant dose dependent cytotoxicity” in each case. Moreover, the intra-cellular calcium levels result in data set [3] was “had no effect on intra-cellular calcium levels”. The “cleaved PARP (c-PARP, marker of apoptosis)” value in data set [4] is reported as “induction of cleaved PARP”. Also, the apoptosis entry in data set [5] is on record as “undergo apoptosis”. In addition, in data set [6], the healing of xenografts entry was “complete healing in some treated HSC3 xenografts”. Further, the tumor volume entry in data set [6] (two weeks, p<0.05) is “significant reduction in tumor volume”.
